Reference: US8280710B2, “Method for determining thermal stability of collagen or collagen-like peptide” (University of Medicine and Dentistry of New Jersey, priority 2005, dated 2012)
Non-standard residues stand in square brackets, D forms with d. Residues, ends and D or L forms follow the SMILES beside them. No end group written: not given here. Hyp = O=C(O)[C@@H]1C[C@@H](O)CN1

Conditions: not given
Method: The propensity measurements for all 20 amino acid residues in the Xaa1 position in a Gly-Xaa1-Hyp context and all 20 amino acid residues in the Xaa2 position in a Gly-Pro-Xaa2 context were determined by measuring thermal stability of host-guest peptides (Persikov, et al. (2000) supra).
The Tm values of all host-guest peptides were measured under a set of standard conditions, with c=1 mg/ml in phosphate-buffered saline, pH 7.0, and with a heating rate average of 0.1° C./minute (Persikov, et al. (2004) supra).

Compound | decrease in stability relative to Gly-Pro-Hyp
Gly-Pro-Ala | 6.4 °C
Gly-Pro-Arg | ~0 °C
Gly-Pro-[Hyp] | 21 °C

Same assay, conditions: host-guest peptide, (Gly-Pro-Hyp)8 host; c=1 mg/ml in phosphate-buffered saline, pH 7.0, heating rate 0.1° C./minute

Compound | experimentally observed Tm of Gly-Xaa1-Xaa2 tripeptide unit in a triple helix
Gly-Ala-[Hyp] | 41.7 °C
Gly-Gly-Ala | 26.0 °C
Gly-Gly-Phe | 19.7 °C
Gly-Pro-Ala | 40.9 °C
Gly-Pro-Arg | 47.2 °C
Gly-Pro-Gln | 41.3 °C
Gly-Pro-Glu | 39.7 °C
Gly-Pro-Gly | 32.9 °C
Gly-Pro-Lys | 36.8 °C
Gly-Pro-Pro | 45.5 °C
Gly-Pro-Ser | 35.0 °C
Gly-Pro-Val | 40.0 °C

Same assay, conditions: peptide of Table 3, defined standard conditions

Compound | Tm^obs
CC(=O)NCC(=O)N[C@@H](C)C(=O)N[C@@H](CCCNC(=N)N)C(=O)NCC(=O)N1CCC[C@H]1C(=O)N[C@@H](C)C(=O)NCC(=O)N1CCC[C@H]1C(=O)N[C@@H](CCC(N)=O)C(=O)NCC(=O)N1CCC[C@H]1C(=O)N[C@@H](CCCNC(=N)N)C(=O)NCC(=O)N[C@@H](CC(=O)O)C(=O)N[C@@H](CCCCN)C(=O)NCC(=O)N[C@@H](CCC(=O)O)C(=O)N[C@H](C(=O)NCC(=O)N1CCC[C@H]1C(=O)N1C[C@H](O)C[C@H]1C(=O)NCC(=O)N1CCC[C@H]1C(=O)N1C[C@H](O)C[C@H]1C(=O)NCC(=O)N1CCC[C@H]1C(=O)N1C[C@H](O)C[C@H]1C(=O)NCC(=O)N1CCC[C@H]1C(=O)N1C[C@H](O)C[C@H]1C(=O)NCC(=O)N[C@H](C(N)=O)C(C)C)[C@@H](C)O [T1-904, Ac-GAR-GPA-GPQ-GPR-GDK-GET-(GPO)4-GV-NH2] (Ac-GARGPAGPQGPRGDKGETGP[Hyp]GP[Hyp]GP[Hyp]GP[Hyp]GV-NH2) | 30.8 °C
CC[C@H](C)[C@H](NC(=O)CNC(=O)[C@H](CO)NC(=O)[C@@H]1CCCN1C(=O)CNC(=O)[C@@H]1C[C@@H](O)CN1C(=O)[C@@H]1CCCN1C(=O)CNC(=O)[C@@H](NC(=O)[C@H](CCCNC(=N)N)NC(=O)CNC(=O)[C@H](C)NC(=O)[C@H](C)NC(=O)CNC(=O)[C@@H]1C[C@@H](O)CN1C(=O)[C@H](Cc1ccccc1)NC(=O)CNC(C)=O)[C@@H](C)O)C(=O)N[C@@H](CO)C(=O)NCC(=O)N1CCC[C@H]1C(=O)N1C[C@H](O)C[C@H]1C(=O)NCC(=O)N1CCC[C@H]1C(=O)N1C[C@H](O)C[C@H]1C(=O)NCC(=O)N1CCC[C@H]1C(=O)N1C[C@H](O)C[C@H]1C(=O)NCC(=O)N1CCC[C@H]1C(=O)N1C[C@H](O)C[C@H]1C(=O)NCC(=O)N[C@H](C(N)=O)C(C)C [T1A2-697, Ac-GFO-GAA-GRT-GPO-GPS-GIS-(GPO)4-GV-NH2] (Ac-GF[Hyp]GAAGRTGP[Hyp]GPSGISGP[Hyp]GP[Hyp]GP[Hyp]GP[Hyp]GV-NH2) | <4 °C
CC[C@H](C)[C@H](NC(=O)CNC(=O)[C@H](CC(C)C)NC(=O)[C@@H]1CCCN1C(=O)CNC(=O)[C@@H]1C[C@@H](O)CN1C(=O)[C@H](C)NC(=O)CNC(=O)[C@@H]1C[C@@H](O)CN1C(=O)[C@@H]1CCCN1C(=O)CNC(C)=O)C(=O)N[C@@H](C)C(=O)NCC(=O)N[C@H](C(=O)N[C@H](C(=O)NCC(=O)N[C@@H](C)C(=O)N[C@@H](CCCNC(=N)N)C(=O)NCC(=O)N[C@@H](CC(C)C)C(=O)N[C@@H](C)C(=O)NCC(=O)N1CCC[C@H]1C(=O)N1C[C@H](O)C[C@H]1C(=O)NCC(=O)N1CCC[C@H]1C(=O)N1C[C@H](O)C[C@H]1C(=O)NCC(=O)N1CCC[C@H]1C(=O)N1C[C@H](O)C[C@H]1C(=O)NCC(=O)N1CCC[C@H]1C(=O)N1C[C@H](O)C[C@H]1C(=O)NCC(=O)NCC(N)=O)[C@@H](C)O)[C@@H](C)CC [T3-772, Ac-GPO-GAO-GPL-GIA-GIT-GAR-GLA-(GPO)4-GG-NH2] (Ac-GP[Hyp]GA[Hyp]GPLGIAGITGARGLAGP[Hyp]GP[Hyp]GP[Hyp]GP[Hyp]GG-NH2) | <4 °C
CC(=O)NCC(=O)N1CCC[C@H]1C(=O)N[C@@H](CCCNC(=N)N)C(=O)NCC(=O)N[C@@H](CC(N)=O)C(=O)N[C@@H](CCCNC(=N)N)C(=O)NCC(=O)N[C@@H](CCC(=O)O)C(=O)N[C@@H](CCCNC(=N)N)C(=O)NCC(=O)N[C@@H](CO)C(=O)N[C@@H](CCC(=O)O)C(=O)NCC(=O)N[C@@H](CO)C(=O)N1C[C@H](O)C[C@H]1C(=O)NCC(=O)N[C@@H](Cc1c[nH]cn1)C(=O)N1C[C@H](O)C[C@H]1C(=O)NCC(=O)N[C@@H](CCC(N)=O)C(=O)N1C[C@H](O)C[C@H]1C(=O)NCC(=O)N1CCC[C@H]1C(=O)N1C[C@H](O)C[C@H]1C(=O)NCC(=O)N1CCC[C@H]1C(=O)N1C[C@H](O)C[C@H]1C(=O)NCC(=O)N[C@@H](C)C(=O)N1C[C@H](O)C[C@H]1C(=O)NCC(=O)N[C@H](C(N)=O)C(C)C [T3-997, Ac-GPR-GNR-GER-GSE-GSO-GHO-GQO-GPO-GPO-GAO-GV-NH2] (Ac-GPRGNRGERGSEGS[Hyp]GH[Hyp]GQ[Hyp]GP[Hyp]GP[Hyp]GA[Hyp]GV-NH2) | <4 °C
CC(=O)NCC(=O)N[C@@H](CCC(=O)O)C(=O)N[C@@H](CCCNC(=N)N)C(=O)NCC(=O)N[C@@H](CCC(=O)O)C(=O)N[C@@H](CCCNC(=N)N)C(=O)NCC(=O)N[C@@H](CCC(=O)O)C(=O)N[C@@H](CCCCN)C(=O)NCC(=O)N[C@@H](CCC(=O)O)C(=O)N[C@@H](CCCNC(=N)N)C(=O)NCC(=O)N[C@@H](CCC(=O)O)C(=O)N[C@@H](CCC(N)=O)C(=O)NCC(=O)N[C@@H](CCCNC(=N)N)C(=O)N[C@@H](CC(=O)O)C(=O)NCC(=O)N1CCC[C@H]1C(=O)N1C[C@H](O)C[C@H]1C(=O)NCC(=O)N1CCC[C@H]1C(=O)N1C[C@H](O)C[C@H]1C(=O)NCC(=O)N1CCC[C@H]1C(=O)N1C[C@H](O)C[C@H]1C(=O)NCC(=O)N1CCC[C@H]1C(=O)N1C[C@H](O)C[C@H]1C(=O)NCC(=O)N[C@H](C(N)=O)C(C)C [T7-2058, Ac-GER-GER-GEK-GER-GEQ-GRD-(GPO)4-GV-NH2] (Ac-GERGERGEKGERGEQGRDGP[Hyp]GP[Hyp]GP[Hyp]GP[Hyp]GV-NH2) | 23.2 °C
